Entries after “also recorded” stand apart in the source; their conditions may differ.
Assays:
[1] = test system: CMT1A transgenic mouse; details: cited from earlier work
[2] = test system: Pmp22 mRNA; details: transgenic mouse; cited from earlier work
[3] = test system: WA09_hESC-MN; assay: Moving mitochondria in motor neuron axons, microfluidic culture; assay type: cell-based, human; details: 6 hours
Excerpt: (§1) To use the neurons differentiated from CMT patient originated iPSCs as the CMT drug efficiency test model, moving mitochondria was investigated over the treatment of tubastatin A, the histon deacetylase 6 (HDAC6) inhibitor, through microfluidic culture, as shown in FIG. 13. And the axonal transport efficiency of motor neurons (CMT 2F-MN) was confirmed (FIG. 13).
(§2) Particularly, the CMT-2F-MN or WA09_MN obtained in Example <3-1> was separated as single cells by using accutase, which were then inoculated in microchannel plates (provided by Dr. Mok, Seoul National University, Korea; Park J W et al., Nat Protoc 2006; 1: 2128-2136) at the density of 1.0×10^5 cells/plate, followed by culture in neurobasal/B27 for 10 days. After axons were fully grown through micrometer-sized grooves and stretched to the opposite compartment, the processed motor neurons were transfected with mito-dsRED2 by using lipofectamine 2000 (Invitrogen, USA). Within 2 days from the transfection, 5˜10 μM tubastatin A was treated to the medium, followed by culture for 6 hours. Imaging of mitochondria was performed by using fluorescent microscope at the speed of 121 snaps/2 min. Moving velocity of the motor neuron was measured by using ImageJ and Kymograph.

[4] = test system: HSP27 P182L-MN; assay: as above; assay type: cell-based, human
Excerpt: as §1, §2

[5] = test system: HSP27 S135F-MN; assay: as above; assay type: cell-based, human
Excerpt: as §1, §2

[6] = test system: CMT 2F-MN; assay: α-tubulin acetylation in motor neurons (immunostaining, Western blotting); assay type: cell-based, human; details: 5 μM tubastatin A, 12 hours, versus non-treated and normal control WA09_MN
Excerpt: To use the neurons differentiated from CMT patient originated iPSCs as the CMT drug efficiency test model, the recovery of axonal transport according to the treatment of tubastatin A, the histon deacetylase 6 (HDAC6) inhibitor, was investigated. CM2 subtype has heterogeneity in CMT causing gene, but nevertheless it causes malfunction in axonal transport system in many patients (Gentil B J and Cooper L, Brain Res Bull 2012; 88: 444-453). Therefore, the axonal transport efficiency of CMT 2F-MN was investigated by measuring the level of α-tubulin acetylation which was reported previously to be associated with the interaction between the vehicle and the motor protein (Westermann S and Weber K. Nat Rev Mol Cell Biol 2003; 4: 938-947).
Particularly, the CMT-2F-MN or WA09_MN differentiated by the same manner as described in Example <3-1> was treated with 5 μM tubastatin A, followed by culture for 12 hours. Then, the cells were immunostained with α-tubulin and acetylated α-tubulin by the same manner as described in Example <2-3>. […]
The CMT-2F-MN or WA09_MN treated with 5 μM tubastatin A was suspended in RIPA lysis buffer (pH 8.0) containing 150 mM NaCl, 1.0% NP-40, 0.5% sodium deoxycholate, 0.1% sodium dodecylsulfate, and 50 mM Tris. […] The band density was analyzed by using UN-SCAN-IT gel software in order to (Silk Scientific, USA) measure the level of α-tubulin acetylation. […]

[7] = test system: myelinated nerve fibers; details: cited from earlier work
[8] = CMT 2F-MN with P182L mutation, tubastatin A treated versus non-treated
[9] = CMT 2F-MN with S135F mutation, tubastatin A treated versus non-treated

O=C1O[C@H]([C@@H](O)CO)C(O)=C1O [Ascorbic acid]
phenotype of hereditary motor and sensory neuropathies [1]: improved

CN(C)c1ccc([C@H]2C[C@]3(C)[C@@H](CC[C@]3(O)CCCO)[C@@H]3CCC4=CC(=O)CCC4=C32)cc1 [onapristone]
over-expression of Pmp22 mRNA [2]: suppressed | phenotype of hereditary motor and sensory neuropathies [2]: improved | side effects [2]: without side effects

CN1CCc2c(c3ccccc3n2Cc2ccc(C(=O)NO)cc2)C1 [tubastatin A]
Moving velocity of mitochondria ([3]; 5 μM tubastatin A treated): 0.2446 ± 0.03859 μm/sec | Migration of mitochondria (number of moving mitochondria by total number) ([3]; 10 μM tubastatin A treated): 39.31 ± 3.831% | moving velocity of mitochondria, in words [4, 8]: significantly increased | transport frequency of mitochondria, in words [4, 8]: significantly increased | Moving velocity of mitochondria ([4]; HSP27 P182L-MN, 5 μM tubastatin A treated, 6 hours): 0.2599 ± 0.05186 μm/sec | Migration of mitochondria (number of moving mitochondria by total number) ([4]; HSP27 P182L-MN, 10 μM tubastatin A treated, 6 hours): 44.61 ± 10.450% | moving velocity of mitochondria, in words [5, 9]: significantly increased | transport frequency of mitochondria, in words [5, 9]: significantly increased | Moving velocity of mitochondria ([5]; HSP27 S135F-MN, 5 μM tubastatin A treated, 6 hours): 0.2498 ± 0.02357 μm/sec | level of α-tubulin acetylation [6]: increased/recovered back to that of the normal control group; also recorded: significantly increased

B1: neurotrophin-3 (protein, UniProt P20783 139-257, looked up)
Neurotrophin-3: YAEHKSHRGEYSVCDSESLWVTDKSSAIDIRGHQVTVLGEIKTGNSPVKQYFYETRCKEARPVKNGCRGIDDKHWNSQCKTSQTYVRALTSENNKLVGWRWIRIDTSCVCALSRKIGRT
notes: neurotrophin reported to increase myelinated nerve fibers
myelinated nerve fibers [7]: increased | sensor related symptoms [7]: improved
